Measured values: the supplement of paper PMC4862054

Key:
Assay in all cases: normalised response (% of control), CellTiter-Glo; higher = more viable cells (100 = DMSO, 0 = benzethonium chloride kill control)
Settings in all cases: incubation time: 72 h
BT-474 = tested on: BT-474
Outline: (§1)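 Breast cancer cell lines (20 µl suspension) were seeded into 384-well plates holding compound at 5 concentrations in 10-fold steps over a compound-specific 10,000-fold range, then incubated 72 h. CellTox Green fluorescence (485/520 nm) was read first, then CellTiter-Glo luminescence after 10 min at room temperature. Each plate was normalised to 0.1 % DMSO (100) and a positive kill control (0). Each value is the normalised signal at a single concentration of the series.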

BT-549 = tested on: BT-549
Outline: as §1

CAL-120 = tested on: CAL-120
Outline: as §1

CAL-148 = tested on: CAL-148
Outline: as §1

CAL-51 = tested on: CAL-51
Outline: as §1

CAL-85-1 = tested on: CAL-85-1
Outline: as §1

DU-4475 = tested on: DU-4475
Outline: as §1

HCC1143 = tested on: HCC1143
Outline: as §1

HCC1599 = tested on: HCC1599
Outline: as §1

HCC1937 = tested on: HCC1937
Outline: as §1

HDQ-P1 = tested on: HDQ-P1
Outline: as §1

Hs578T = tested on: Hs578T
Outline: as §1

MCF-10A = tested on: MCF-10A
Outline: as §1

MDA-MB-231 = tested on: MDA-MB-231
Outline: as §1

MDA-MB-436 = tested on: MDA-MB-436
Outline: as §1

MDA-MB-453 = tested on: MDA-MB-453
Outline: as §1

MDA-MB-468 = tested on: MDA-MB-468
Outline: as §1

MFM-223 = tested on: MFM-223
Outline: as §1

SK-BR-3 = tested on: SK-BR-3
Outline: as §1

SMILES | normalised response (BT-474) | normalised response (BT-549) | normalised response (CAL-120) | normalised response (CAL-148) | normalised response (CAL-51) | normalised response (CAL-85-1) | normalised response (DU-4475) | normalised response (HCC1143) | normalised response (HCC1599) | normalised response (HCC1937) | normalised response (HDQ-P1) | normalised response (Hs578T) | normalised response (MCF-10A) | normalised response (MDA-MB-231) | normalised response (MDA-MB-436) | normalised response (MDA-MB-453) | normalised response (MDA-MB-468) | normalised response (MFM-223) | normalised response (SK-BR-3)
CN1CCN(CCOc2cc(OC3CCOCC3)c3c(Nc4c(Cl)ccc5c4OCO5)ncnc3c2)CC1 [Saracatinib] (10 nM) | 93.5% | 103% | 93.1% | 91.6% | 129% | 104% | 103% | 94.4% | 103% | 97.6% | 118% | 101% | 97.8% | 92.7% | 94.8% | 107% | 93.2% | 96% | 113%
CN(C)CCN1C(=O)c2cccc3cc(N)cc(c23)C1=O [Amonafide] (1 nM) | 104% | 101% | 99.7% | 99.9% | 120% | 101% | 101% | 94% | 102% | 99.3% | 97.3% | 97.6% | 88.6% | 102% | 100% | 105% | 94.7% | 103% | 103%
COc1ccccc1S(=O)(=O)Nc1ccc2c(c1)CN(C)C(=O)N2 [PFI-1] (1 nM) | 93.7% | 96.5% | 100% | 107% | 77.9% | 98% | 104% | 94.2% | 80.6% | 99.2% | 96% | 107% | 112% | 103% | 94.8% | 105% | 90.8% | 101% | 104%
Cc1ccc(NC(=O)c2ccc(CN3CCN(C)CC3)cc2)cc1Nc1nccc(-c2cccnc2)n1 [Imatinib] (1 nM) | 99.2% | 102% | 101% | 114% | 74.7% | 102% | 107% | 100% | 101% | 94.5% | 102% | 103% | 101% | 105% | 89.9% | 119% | 102% | 108% | 107%
NS(=O)(=O)OC[C@@H]1C[C@@H](n2ccc3c(N[C@H]4CCc5ccccc54)ncnc32)C[C@@H]1O [Pevonedistat] (10 nM) | 114% | 94% | 97.8% | 109% | 77% | 100% | 109% | 102% | 97.1% | 99.1% | 95.9% | 103% | 112% | 107% | 96.6% | 100% | 97.2% | 102% | 93.5%
CO[C@H]1C[C@@H]2CC[C@@H](C)[C@@](O)(O2)C(=O)C(=O)N2CCCC[C@H]2C(=O)O[C@H]([C@H](C)C[C@@H]2CC[C@@H](OCCO)[C@H](OC)C2)CC(=O)[C@H](C)/C=C(\C)[C@@H](O)[C@@H](OC)C(=O)[C@H](C)C[C@H](C)/C=C/C=C/C=C/1C [Everolimus] (0.1 nM) | 92% | 88% | 95.9% | 80.7% | 115% | 90% | 95% | 92% | 90.5% | 88% | 94.4% | 89.5% | 96% | 99.2% | 90.7% | 95.8% | 84.8% | 88.4% | 92%
CN(C)C[C@@H]1CCn2cc(c3ccccc32)C2=C(C(=O)NC2=O)c2cn(c3ccccc23)CCO1 [Ruboxistaurin] (1 nM) | 95.3% | 96.9% | 90.3% | 97.7% | 129% | 96.7% | 99.8% | 94.4% | 99.2% | 94.6% | 101% | 96.7% | 106% | 97.9% | 105% | 98.9% | 106% | 98.6% | 98.4%
COc1ccccc1S(=O)(=O)Nc1ccc2c(c1)CN(C)C(=O)N2 [PFI-1] (10 nM) | 99.7% | 90.1% | 91.8% | 108% | 102% | 94.6% | 109% | 102% | 88.6% | 94.5% | 96% | 106% | 103% | 103% | 97.1% | 97.2% | 95.3% | 109% | 88.4%
CC(C)(C#N)c1cc(Cn2cncn2)cc(C(C)(C)C#N)c1 [Anastrozole] (10 nM) | 101% | 99% | 96.2% | 99.3% | 93.7% | 94.9% | 104% | 103% | 102% | 100% | 94.3% | 105% | 110% | 100% | 99.4% | 104% | 98.8% | 104% | 105%
CN1CCN(CCOc2cc(OC3CCOCC3)c3c(Nc4c(Cl)ccc5c4OCO5)ncnc3c2)CC1 [Saracatinib] (1 nM) | 94.4% | 105% | 94.4% | 97.9% | 116% | 105% | 102% | 89.2% | 116% | 95.7% | 94.5% | 97.4% | 96.5% | 94.6% | 103% | 103% | 99.2% | 97.5% | 98.6%
Nc1ncnc2c1c(COc1cccc(Cl)c1)nn2C1CCOCC1 (1 nM) | 102% | 104% | 95.4% | 105% | 105% | 95.7% | 101% | 106% | 107% | 100% | 100% | 104% | 114% | 103% | 102% | 102% | 94.7% | 102% | 109%
COc1ccc(-c2ccc3c(N4CCOC[C@@H]4C)nc(N4CCOC[C@@H]4C)nc3n2)cc1CO [AZD8055] (1 nM) | 90.8% | 98.2% | 90.3% | 89.3% | 116% | 93.5% | 95.5% | 86.8% | 108% | 91% | 95.2% | 93.7% | 85.7% | 95.2% | 89.3% | 104% | 90.5% | 86.8% | 87.1%
O=C1NC(=O)[C@@H](c2cn3c4c(cccc24)CCC3)[C@@H]1c1c[nH]c2ccccc12 [Tivantinib] (0.1 nM) | 102% | 104% | 101% | 101% | 87.5% | 96.2% | 98.8% | 97.9% | 107% | 95.6% | 101% | 103% | 101% | 97.8% | 106% | 92.5% | 104% | 103% | 108%
C/C(=C\c1csc(C)n1)[C@@H]1C[C@@H]2O[C@]2(C)CCC[C@H](C)[C@H](O)[C@@H](C)C(=O)C(C)(C)[C@@H](O)CC(=O)O1 [Patupilone] (0.1 nM) | 110% | 98.7% | 104% | 113% | 81.4% | 104% | 106% | 97.6% | 108% | 98% | 105% | 99.3% | 102% | 101% | 98% | 101% | 107% | 103% | 98%
CC(C)c1c(C(=O)Nc2ccccc2)c(-c2ccccc2)c(-c2ccc(F)cc2)n1CC[C@@H](O)C[C@@H](O)CC(=O)O [Atorvastatin] (1 nM) | 94% | 96.9% | 92.8% | 103% | 89.8% | 98.7% | 100% | 98.2% | 96.5% | 98.1% | 95.9% | 98.9% | 99.1% | 95.2% | 95.5% | 107% | 94.2% | 97.6% | 103%
Cc1ccc(NC(=O)c2ccc(CN3CCN(C)CC3)cc2)cc1Nc1nccc(-c2cccnc2)n1 [Imatinib] (10 nM) | 104% | 96.7% | 102% | 113% | 107% | 96% | 109% | 101% | 103% | 99.3% | 106% | 107% | 104% | 99.9% | 103% | 108% | 113% | 109% | 109%
CO[C@H]1C[C@@H]2CC[C@@H](C)[C@@](O)(O2)C(=O)C(=O)N2CCCC[C@H]2C(=O)O[C@H]([C@H](C)C[C@@H]2CC[C@@H](OCCO)[C@H](OC)C2)CC(=O)[C@H](C)/C=C(\C)[C@@H](O)[C@@H](OC)C(=O)[C@H](C)C[C@H](C)/C=C/C=C/C=C/1C [Everolimus] (0.01 nM) | 103% | 103% | 97.8% | 90.1% | 132% | 95.3% | 98.7% | 93% | 107% | 95.9% | 96.1% | 91.2% | 93.6% | 98.9% | 95.7% | 99.3% | 105% | 95.3% | 93.4%
NS(=O)(=O)OC[C@@H]1C[C@@H](n2ccc3c(N[C@H]4CCc5ccccc54)ncnc32)C[C@@H]1O [Pevonedistat] (1 nM) | 93.6% | 99.2% | 100% | 106% | 79.2% | 93.9% | 94.7% | 105% | 95.9% | 100% | 100% | 99.7% | 115% | 102% | 99.7% | 110% | 96.7% | 102% | 107%
O=C(O)CCCc1ccc(N(CCCl)CCCl)cc1 [Chlorambucil] (1 nM) | 102% | 102% | 97.1% | 96.8% | 128% | 99.4% | 102% | 102% | 98.4% | 102% | 101% | 107% | 100% | 101% | 132% | 118% | 96.9% | 102% | 95.6%
